The text below walks through data of patent US20240279202A1 (NURIX THERAPEUTICS, INC., priority 2021, published 2024).

Where a name gives a salt, the structure may show the parent alone.

This test deals with T1, ITK (Mus musculus, UniProt Q03526).
T1 construct: mice were sacrificed and splenocytes were isolated and used to prepare protein lysates; from tissue; host or cells: mouse splenocytes (spleen) after oral dosing
T1 sequence (Q03526 1-625): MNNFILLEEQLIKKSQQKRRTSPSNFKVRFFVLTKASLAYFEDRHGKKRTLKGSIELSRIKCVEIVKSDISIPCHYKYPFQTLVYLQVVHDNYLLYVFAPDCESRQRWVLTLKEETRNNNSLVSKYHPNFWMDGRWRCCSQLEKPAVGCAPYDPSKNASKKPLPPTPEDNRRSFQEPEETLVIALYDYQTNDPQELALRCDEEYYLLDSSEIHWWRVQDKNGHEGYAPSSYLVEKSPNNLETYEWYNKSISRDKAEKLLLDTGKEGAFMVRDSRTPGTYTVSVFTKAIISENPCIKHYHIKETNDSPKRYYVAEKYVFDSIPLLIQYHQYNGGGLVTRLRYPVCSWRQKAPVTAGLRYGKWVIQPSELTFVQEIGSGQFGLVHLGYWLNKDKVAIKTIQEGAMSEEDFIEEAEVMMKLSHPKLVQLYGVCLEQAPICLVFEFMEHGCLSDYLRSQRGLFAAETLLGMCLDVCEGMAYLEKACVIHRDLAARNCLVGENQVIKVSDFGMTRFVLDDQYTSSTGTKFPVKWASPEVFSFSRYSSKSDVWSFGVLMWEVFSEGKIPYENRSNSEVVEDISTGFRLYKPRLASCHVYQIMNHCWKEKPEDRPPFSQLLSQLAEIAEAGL
The test is described as follows: Mouse PD assay for ITK degradation (Western blot, splenocytes after oral administration). It is filed as in vivo. The following applies: for ITK (%) 90 mpk PO, 6 h: percent ITK remaining in mouse splenocytes relative to vehicle. As to the method: Compounds 1, 3, 7, and 42 were formulated and administered at 90 mg/kg to mice by oral gavage (PO). Blood was collected at defined time points (after 1, 2, and 6 hours) after compounds administration to determine PK parameters. Concentration increased through 6 hours. Six hours later mice were sacrificed and splenocytes were isolated and used to prepare protein lysates. Total protein levels were determined in the lysates using the BCA assay according to standard methods. Equal amounts of protein were then analyzed by Western blot to determine the level of ITK expression in each sample. ITK band intensities were measured using Alpha View software and the percent of ITK remaining in each test animal was determined relative to the mean of ITK levels in vehicle control samples.
After 6 hours, splenocytes cells were harvested. ITK was evaluated by Western blotting.
Compounds 43, 4, 5, 10, 11, 12, 44, 14, 3, and 13 were administered to mice orally. After 6 hours, splenocytes cells were harvested. ITK was evaluated by Western blotting. Media was removed and cell pellets were lysed in 100 uL lysis buffer (RIPA buffer (Fisher, PI89901), cOmplete Mini EDTA-free protease inhibitor (Sigma 11836170001), Protease Inhibitor Cocktail (Sigma, P2714), Phosphatase Inhibitor Cocktail 2 and 3 (Sigma, P5726 and P0044), Benzonase (Sigma, E1014)). Cells were lysed overnight at −20° C. Following thaw, cells were centrifuged for 10 min at 13000 rpm, then transferred to new tube. Protein levels were determined by BCA Assay performed according to manufacturer's protocol (EMID Millipore, cat. no. 71285-3). Samples were combined with (4×) LDS Sample Buffer and (10×) Reducing Agent and H2O to equally load 20 ug protein per lane of a 26-well NuPAGE 4-12% Bis-Tris protein gel (1.0 mm, Thermo cat. no. NP0326). Samples were separated by running gels at constant 150 V in NuPAGE MES SDS Running Buffer. Following electrophoresis, proteins were transferred to nitrocellulose membranes using an iBlot Gel Transfer Device and iBlot Gel Transfer Stacks (Thermo cat. no. IB21001 and IB301001) and transfer method P3 (20V for 7 min). Membranes were blocked for 1 hr in 5% milk solution (TBS (0.2% Tween-20)). Following blocking, membranes were incubated with primary antibody (1:1000 CST ITK (2F12) #2380) overnight at 4° C. with gentle shaking. Blots were washed 2× in TBS (0.2% Tween-20), 30 min per wash. Following washes, blots were incubated in secondary HRP-conjugated antibody (Promega anti-Mouse IgG (H+L) HRP cat. no. W4021), 1:5000 in 5% milk solution (TBS (0.2% Tween-20)), for 1 hr at room temperature with gentle shaking. Blots were washed 2× in TBS (0.2% Tween-20), 30 min per wash. Blots were incubated with 1:1 mix of ECL reagents 1 & 2 (Amersham ECL Western Blotting Detection Reagent, cat. no. RPN2106) for 2 min at room temperature. Bands were visualized using a Protein Simple imager. Blots were then re-probed with a combination of anti-actin antibody (Sigma Monoclonal Mouse Anti-3-Actin (clone AC-15), cat. no. A5441) and secondary H1RP-conjugated antibody (Promega anti-Mouse IgG (H+L) HRP, cat. no. W4021) and similar steps were taken for incubation, wash, detection and visualization steps as above. The data was analyzed using Alpha View software. The densitometric reading for each sample band was normalized to that of the corresponding actin band per lane. Approximate % ITK remaining per sample was calculated as follows: […]
Once % ITK remaining has been calculated for each sample, groups are averaged together to show an means % ITK normalized to actin and relative to control.
Compounds 16, 17, and 18 were administered to mice orally. After 6 hours or 24 hours, splenocytes cells were harvested. ITK was evaluated by Western blotting. Plasma concentrations were determined by LC/MS/MS. Plasma samples were protein precipitated by addition of 100 μl of acetonitrile containing 50 ng/ml of internal standard. The resulting mixture was vortexed and centrifuged at 4000 RPM for 5 minutes. […]

Where [1] appears, read: mice, oral, splenocytes, Western blot, 6 hours.

As for `CC1(C)CCc2c(-c3cc4ccc(N5CCC6(CCN(CC7CCN(c8ccc(C9CCC(=O)NC9=O)cn8)CC7)CC6)C5=O)cc4[nH]3)n[nH]c2C1` (centres unmarked) [Compound 22, 3-(6-(4-((2-(2-(6,6-dimethyl-4,5,6,7-tetrahydro-1H-indazol-3-yl)-1H-indol-6-yl)-1-oxo-2,8-diazaspiro[4.5]decan-8-yl)methyl)piperidin-1-yl)pyridin-3-yl)piperidine-2,6-dione], the “ITK (%) 90 mpk PO, 6 h” value turned out to be 76%.

Take `C[C@@H](C(=O)N(C)c1ccc2cc(-c3n[nH]c4c3C[C@@H]3C(F)(F)[C@]3(C)C4)[nH]c2c1)N1CCN(C[C@H]2CCN(c3ccc4c(c3)C(=O)N(C3CCC(=O)NC3=O)C4=O)C2)CC1` (stereo partly drawn) [Compound 9, (2S)—N-(2-((4aS,5aR)-5,5-difluoro-5a-methyl-1,4,4a,5,5a,6-hexahydrocyclopropa[f]indazol-3-yl)-1H-indol-6-yl)-2-(4-(((3R)-1-(2-(2,6-dioxopiperidin-3-yl)-1,3-dioxoisoindolin-5-yl)pyrrolidin-3-yl)methyl)piperazin-1-yl)-N-methylpropanamide]: the “ITK (%) 90 mpk PO, 6 h” value is reported as 49.3%.

Consider `C[C@@]12Cc3[nH]nc(C(=O)Nc4cnn(CC5CN(C(=O)C6CN(c7ccc(C8CCC(=O)NC8=O)cn7)C6)C5)c4)c3C[C@@H]1C2(F)F` (stereo partly drawn) [Compound 49, (4aS,5aR)-N-(1-((1-(1-(5-(2,6-dioxopiperidin-3-yl)pyridin-2-yl)azetidine-3-carbonyl)azetidin-3-yl)methyl)-1H-pyrazol-4-yl)-5,5-difluoro-5a-methyl-1,4,4a,5,5a,6-hexahydrocyclopropa[f]indazole-3-carboxamide], for which the “ITK (%) 90 mpk PO, 6 h” value was 129%.

`C[C@@H](C(=O)N(C)c1ccc2cc(-c3n[nH]c4c3CCC(C)(C)C4)[nH]c2c1)N1CCN(CC2CCN(c3cccc4c3n(C)c(=O)n4C3CCC(=O)NC3=O)CC2)CC1` (stereo partly drawn) [Compound 3, (2S)—N-(2-(6,6-dimethyl-4,5,6,7-tetrahydro-1H-indazol-3-yl)-1H-indol-6-yl)-2-(4-((1-(1-(2,6-dioxopiperidin-3-yl)-3-methyl-2-oxo-2,3-dihydro-1H-benzo[d]imidazol-4-yl)piperidin-4-yl)methyl)piperazin-1-yl)-N-methylpropanamide]: the “ITK (%) 90 mpk PO, 6 h” value stood at 24%. Besides, under “mice, 90 mg/kg PO, splenocytes, Western blot, 6 hours”, the “ITK degradation in vivo at 6 hours (FIG. 2)” value is recorded as “degraded ITK in vivo”. Moreover, the “ITK degradation in vivo at 6 hours (FIG. 3A, FIG. 4A)” value under setting [1] is given as “degraded ITK in vivo”. In addition, for the setting “mice, oral, splenocytes, Western blot, 24 hours”, the “ITK degradation in vivo at 24 hours (FIG. 3A, FIG. 4A)” value is given as “degraded ITK in vivo”.

Turning to `C[C@@]12Cc3[nH]nc(-c4cc5ccc(N6CCC7(CCN(Cc8ccc9c(c8)C(=O)N(C8CCC(=O)NC8=O)C9=O)CC7)C6=O)cc5[nH]4)c3C[C@@H]1C2(F)F` (stereo partly drawn) [Compound 15, 5-((2-(2-((4aS,5aR)-5,5-difluoro-5a-methyl-1,4,4a,5,5a,6-hexahydrocyclopropa[f]indazol-3-yl)-1H-indol-6-yl)-1-oxo-2,8-diazaspiro[4.5]decan-8-yl)methyl)-2-(2,6-dioxopiperidin-3-yl)isoindoline-1,3-dione hydrochloride], the “ITK (%) 90 mpk PO, 6 h” value came to 18.3%.

Consider `CC1(C)CCc2c(-c3cc4ccc(C(=O)N5CCN(CC6CCN(c7ccc(C8CCC(=O)NC8=O)cn7)CC6)CC5)cc4[nH]3)n[nH]c2C1` (centres unmarked) [Compound 47, 3-(6-(4-((4-(2-(6,6-dimethyl-4,5,6,7-tetrahydro-1H-indazol-3-yl)-1H-indole-6-carbonyl)piperazin-1-yl)methyl)piperidin-1-yl)pyridin-3-yl)piperidine-2,6-dione], for which the “ITK (%) 90 mpk PO, 6 h” value was found to be 11%.

As for `C[C@@H](C(=O)N(C)c1ccc2cc(-c3n[nH]c4c3CCC(C)(C)C4)[nH]c2c1)N1CCN(C[C@H]2CCN(c3ccc4c(c3)C(=O)N(C3CCC(=O)NC3=O)C4=O)C2)CC1` (stereo partly drawn) [Compound 33, (2S)—N-(2-(6,6-dimethyl-4,5,6,7-tetrahydro-1H-indazol-3-yl)-1H-indol-6-yl)-2-(4-(((3R)-1-(2-(2,6-dioxopiperidin-3-yl)-1,3-dioxoisoindolin-5-yl)pyrrolidin-3-yl)methyl)piperazin-1-yl)-N-methylpropanamide], the “ITK (%) 90 mpk PO, 6 h” value worked out at 67%.

With `CN(C(=O)C1CN(C2CCN(c3ccc4c(c3)C(=O)N(C3CCC(=O)NC3=O)C4=O)CC2)C1)c1ccc2cc(-c3n[nH]c4c3CCC(C)(C)C4)[nH]c2c1` (centres unmarked) [Compound 35, N-(2-(6,6-dimethyl-4,5,6,7-tetrahydro-1H-indazol-3-yl)-1H-indol-6-yl)-1-(1-(2-(2,6-dioxopiperidin-3-yl)-1,3-dioxoisoindolin-5-yl)piperidin-4-yl)-N-methylazetidine-3-carboxamide], the “ITK (%) 90 mpk PO, 6 h” value is 108%.

Take `C[C@@H](C(=O)N(C)c1ccc2cc(-c3n[nH]c4c3CCC(C)(C)C4)[nH]c2c1)N1CCN(C[C@@H]2CCN(c3ccc4c(c3)n(C)c(=O)n4C3CCC(=O)NC3=O)C2)CC1` (stereo partly drawn) [Compound 4, (2S)—N-(2-(6,6-dimethyl-4,5,6,7-tetrahydro-1H-indazol-3-yl)-1H-indol-6-yl)-2-(4-(((3S)-1-(1-(2,6-dioxopiperidin-3-yl)-3-methyl-2-oxo-2,3-dihydro-1H-benzo[d]imidazol-5-yl)pyrrolidin-3-yl)methyl)piperazin-1-yl)-N-methylpropanamide]: the “ITK (%) 90 mpk PO, 6 h” value is recorded as 75%. Further, the “ITK degradation in vivo at 6 hours (FIG. 3A, FIG. 4A)” value under setting [1] is “degraded ITK in vivo”.

Consider `C[C@@H](C(=O)N(C)c1ccc2cc(-c3n[nH]c4c3C[C@@H]3C(F)(F)[C@]3(C)C4)[nH]c2c1)N1CCN(CC2CCN(c3cccc4c3n(C)c(=O)n4C3CCC(=O)NC3=O)CC2)CC1` (stereo partly drawn) [Compound 65, (2S)—N-(2-((4aS,5aR)-5,5-difluoro-5a-methyl-1,4,4a,5,5a,6-hexahydrocyclopropa[f]indazol-3-yl)-1H-indol-6-yl)-2-(4-((1-(1-(2,6-dioxopiperidin-3-yl)-3-methyl-2-oxo-2,3-dihydro-1H-benzo[d]imidazol-4-yl)piperidin-4-yl)methyl)piperazin-1-yl)-N-methylpropanamide], for which the “ITK (%) 90 mpk PO, 6 h” value was 58%.
